Reference: US20210261507A1, “Crystalline Form of Fluopyram” (Bayer Aktiengesellschaft, priority 2018, published 2021)
Values joined by “and” are separate entries in the source; they are usually repeats but may differ in a detail not shown here. Equal entries are not always repeated.

Columns and labels:
Assay type in all cases: physicochemical
[1] = Aspect ratio of crystals measured from microscopic images of suspension concentrate formulations; settings: for Aspect ratio, mean: mean of 10 crystals, tables 5.1 to 5.4; for Crystal shape (FIGS. 3a-3d): microscopic images
Experimental: In an example the aspect ratio for crystals of fluopyram and other different active ingredients was measured from microscopic images taken from suspension concentrate formulations after crystal growth had occurred, diluted to approximately 1% in water. For the purpose of this invention the length is defined as the longest dimension and the width as the shortest dimension of a 2-dimensional image obtained in a transmission optical microscope. The aspect ratio was determine by the dividing the length by the width.

[2] = Ageing of fluopyram suspension concentrate, crystal habit; settings: 500 g/L suspension concentrate, 1 month at 40 to 45° C.
Experimental: In an example 500 g/L of fluopyram crystalline active ingredient was added to a mixture of 65 g/L wetters and dispersants, 80 g/L propylene glycol, 2 g/L silicone antifoam in 432 g/L with high shear mixing (Ultra-Turrax®) to reduce the particle size D(v,0.9) to approximately 50 microns, then passed through a bead mill (Eiger® 250 Mini Motormill) to achieve a particles size D(v,0.9) typically 1 to 15 microns. Then a gel composed of 2.4 g/L xanthan and 1 g/L biocide in 117 g/L water was added with low shear mixing (stirrer).

[3] = EC formulation diluted in water and evaporated on the leaf surface, crystal habit; settings: dilution at 1% in water
Experimental: In an example an EC formulation was prepared by dissolving 1 to 500 g/L of fluopyram in a mixture comprising a certain amount of emulsifiers and a certain amount of solvent.

[4] = Table 6, crystals present in suspension concentrate formulations, from tables 5.1 to 5.4

Compound	Aspect ratio [1, 4]	Aspect ratio, mean [1]	Crystal shape (FIGS. 3a-3d) [1]	Crystal appearance after ageing [2]	Crystals produced after dilution and evaporation [3]	Aspect ratio ([1]; single crystals, length divided by width)
Cc1cc(C)nc(Nc2ccccc2)n1 [pyrimethanil]	1.44	1.44	cubic shaped forms	–	–	–
O=C(NCCc1ncc(C(F)(F)F)cc1Cl)c1ccccc1C(F)(F)F [fluopyram, N-{2-[3-chloro-5-(trifluoromethyl)-2-pyridyl]ethyl}-α,α,α-trifluoro-o-tolu amide]	12.02	12.02	needle-like habit	needle-like appearance	needle shaped crystals	–
CC(C)(C)C(O)(CCc1ccc(Cl)cc1)Cn1cncn1 (stereo not drawn) [tebuconazole]	1.15	1.15	cubic shaped forms	–	–	1.00 and 1.20 and 1.30 and 1.02 and 1.22 and 0.83 and 1.07 and 1.44
CON=C(C(=O)OC)c1ccccc1CON=C(C)c1cccc(C(F)(F)F)c1 [trifloxystrobin]	1.25	1.25	cubic shaped forms	–	–	–
